Molecular target: T1, ATM protein immunoprecipitated from HeLa cell nuclear extract (Homo sapiens, UniProt Q13315)
T1 construct: ATM protein was immunoprecipitated from HeLa cell nuclear extract; endogenous in cells; host or cells: HeLa cell nuclear extract (immunoprecipitated with rabbit polyclonal anti-ATM antiserum)
Assay: In vitro ATM inhibition assay (phosphorylation of GSTp53N66 on serine 15, chemiluminescent detection)
Format: biochemical
Conditions: read-out: IC50 values (the concentration at which 50% of the enzyme activity is inhibited), ATM inhibition
Description: In order to assess the inhibitory action of the compounds against ATM in vitro, the following assay was used to determine IC50 values. ATM protein was immunoprecipitated from HeLa cell nuclear extract using rabbit polyclonal anti-sera raised to the C-terminal ˜500 amino-acid residues of the human ATM protein. […] 10 μl of immunoprecipitated ATM in Buffer C (50 mM Hepes, pH 7.4, 6 mM MgCl2, 150 mM NaCl, 0.1 mM sodium orthovanadate, 4 mM MnCl2, 0.1 mM dithiothreitol, 10% glycerol) was added to 32.5 μl of buffer C containing 1 μg of the ATM substrate GSTp53N66 in a V-bottomed 96 well polypropylene plate. The GSTp53N66 substrate is the amino terminal 66 amino acid residues of human wild type p53 fused to glutathione S-transferase. […] Varying concentrations of inhibitor were then added. […] After 10 minutes of incubation at 37° C., the reactions were initiated by the addition of 5 μl of 500 μM Na-ATP. After 1 hour with shaking at 37° C., 150 μl of phosphate buffered saline (PBS) was added to the reaction and the plate centrifuged at 1500 rpm for 10 minutes. 5 μl of the reaction was then transferred to a 96 well opaque white plate containing 45 μl of PBS to allow the GSTp53N66 substrate to bind to the plate wells. The plate was covered and incubated at room temperature for 1 hour with shaking before discarding the contents. The plate wells were washed twice by the addition of PBS prior to the addition of 3% (w/v) bovine serum albumin (BSA) in PBS. The plate was incubated at room temperature for 1 hour with shaking before discarding the contents and washing twice with PBS. To the wells, 50 μl of a 1:10,000 dilution of primary phosphoserine-15 antibody (Cell Signaling Technology, #9284L) in 3% BSA/PBS was added to detect the phosphorylation event on the serine 15 residue of p53 elicited by the ATM kinase. […] The wells were then washed four times with PBS before the addition of chemiluminescence reagent (NEN Renaissance, NEL105). The plate was then shaken briefly, covered with a transparent plate seal and transferred to a TopCount NXT for chemiluminescent counting. Counts per second, following a one second counting time, were recorded for each reaction.
The enzyme activity for each compound is then calculated using the following equation:
[formula] Results In vitro ATM assays
Compounds were assayed for ATM inhibition activity using the method described above. […] These are determined over a range of different concentrations, normally from 100 μM down to 0.1 nM. Such IC50 values are used as comparative values to identify increased compound potencies.

T1 sequence (Q13315 whole entry): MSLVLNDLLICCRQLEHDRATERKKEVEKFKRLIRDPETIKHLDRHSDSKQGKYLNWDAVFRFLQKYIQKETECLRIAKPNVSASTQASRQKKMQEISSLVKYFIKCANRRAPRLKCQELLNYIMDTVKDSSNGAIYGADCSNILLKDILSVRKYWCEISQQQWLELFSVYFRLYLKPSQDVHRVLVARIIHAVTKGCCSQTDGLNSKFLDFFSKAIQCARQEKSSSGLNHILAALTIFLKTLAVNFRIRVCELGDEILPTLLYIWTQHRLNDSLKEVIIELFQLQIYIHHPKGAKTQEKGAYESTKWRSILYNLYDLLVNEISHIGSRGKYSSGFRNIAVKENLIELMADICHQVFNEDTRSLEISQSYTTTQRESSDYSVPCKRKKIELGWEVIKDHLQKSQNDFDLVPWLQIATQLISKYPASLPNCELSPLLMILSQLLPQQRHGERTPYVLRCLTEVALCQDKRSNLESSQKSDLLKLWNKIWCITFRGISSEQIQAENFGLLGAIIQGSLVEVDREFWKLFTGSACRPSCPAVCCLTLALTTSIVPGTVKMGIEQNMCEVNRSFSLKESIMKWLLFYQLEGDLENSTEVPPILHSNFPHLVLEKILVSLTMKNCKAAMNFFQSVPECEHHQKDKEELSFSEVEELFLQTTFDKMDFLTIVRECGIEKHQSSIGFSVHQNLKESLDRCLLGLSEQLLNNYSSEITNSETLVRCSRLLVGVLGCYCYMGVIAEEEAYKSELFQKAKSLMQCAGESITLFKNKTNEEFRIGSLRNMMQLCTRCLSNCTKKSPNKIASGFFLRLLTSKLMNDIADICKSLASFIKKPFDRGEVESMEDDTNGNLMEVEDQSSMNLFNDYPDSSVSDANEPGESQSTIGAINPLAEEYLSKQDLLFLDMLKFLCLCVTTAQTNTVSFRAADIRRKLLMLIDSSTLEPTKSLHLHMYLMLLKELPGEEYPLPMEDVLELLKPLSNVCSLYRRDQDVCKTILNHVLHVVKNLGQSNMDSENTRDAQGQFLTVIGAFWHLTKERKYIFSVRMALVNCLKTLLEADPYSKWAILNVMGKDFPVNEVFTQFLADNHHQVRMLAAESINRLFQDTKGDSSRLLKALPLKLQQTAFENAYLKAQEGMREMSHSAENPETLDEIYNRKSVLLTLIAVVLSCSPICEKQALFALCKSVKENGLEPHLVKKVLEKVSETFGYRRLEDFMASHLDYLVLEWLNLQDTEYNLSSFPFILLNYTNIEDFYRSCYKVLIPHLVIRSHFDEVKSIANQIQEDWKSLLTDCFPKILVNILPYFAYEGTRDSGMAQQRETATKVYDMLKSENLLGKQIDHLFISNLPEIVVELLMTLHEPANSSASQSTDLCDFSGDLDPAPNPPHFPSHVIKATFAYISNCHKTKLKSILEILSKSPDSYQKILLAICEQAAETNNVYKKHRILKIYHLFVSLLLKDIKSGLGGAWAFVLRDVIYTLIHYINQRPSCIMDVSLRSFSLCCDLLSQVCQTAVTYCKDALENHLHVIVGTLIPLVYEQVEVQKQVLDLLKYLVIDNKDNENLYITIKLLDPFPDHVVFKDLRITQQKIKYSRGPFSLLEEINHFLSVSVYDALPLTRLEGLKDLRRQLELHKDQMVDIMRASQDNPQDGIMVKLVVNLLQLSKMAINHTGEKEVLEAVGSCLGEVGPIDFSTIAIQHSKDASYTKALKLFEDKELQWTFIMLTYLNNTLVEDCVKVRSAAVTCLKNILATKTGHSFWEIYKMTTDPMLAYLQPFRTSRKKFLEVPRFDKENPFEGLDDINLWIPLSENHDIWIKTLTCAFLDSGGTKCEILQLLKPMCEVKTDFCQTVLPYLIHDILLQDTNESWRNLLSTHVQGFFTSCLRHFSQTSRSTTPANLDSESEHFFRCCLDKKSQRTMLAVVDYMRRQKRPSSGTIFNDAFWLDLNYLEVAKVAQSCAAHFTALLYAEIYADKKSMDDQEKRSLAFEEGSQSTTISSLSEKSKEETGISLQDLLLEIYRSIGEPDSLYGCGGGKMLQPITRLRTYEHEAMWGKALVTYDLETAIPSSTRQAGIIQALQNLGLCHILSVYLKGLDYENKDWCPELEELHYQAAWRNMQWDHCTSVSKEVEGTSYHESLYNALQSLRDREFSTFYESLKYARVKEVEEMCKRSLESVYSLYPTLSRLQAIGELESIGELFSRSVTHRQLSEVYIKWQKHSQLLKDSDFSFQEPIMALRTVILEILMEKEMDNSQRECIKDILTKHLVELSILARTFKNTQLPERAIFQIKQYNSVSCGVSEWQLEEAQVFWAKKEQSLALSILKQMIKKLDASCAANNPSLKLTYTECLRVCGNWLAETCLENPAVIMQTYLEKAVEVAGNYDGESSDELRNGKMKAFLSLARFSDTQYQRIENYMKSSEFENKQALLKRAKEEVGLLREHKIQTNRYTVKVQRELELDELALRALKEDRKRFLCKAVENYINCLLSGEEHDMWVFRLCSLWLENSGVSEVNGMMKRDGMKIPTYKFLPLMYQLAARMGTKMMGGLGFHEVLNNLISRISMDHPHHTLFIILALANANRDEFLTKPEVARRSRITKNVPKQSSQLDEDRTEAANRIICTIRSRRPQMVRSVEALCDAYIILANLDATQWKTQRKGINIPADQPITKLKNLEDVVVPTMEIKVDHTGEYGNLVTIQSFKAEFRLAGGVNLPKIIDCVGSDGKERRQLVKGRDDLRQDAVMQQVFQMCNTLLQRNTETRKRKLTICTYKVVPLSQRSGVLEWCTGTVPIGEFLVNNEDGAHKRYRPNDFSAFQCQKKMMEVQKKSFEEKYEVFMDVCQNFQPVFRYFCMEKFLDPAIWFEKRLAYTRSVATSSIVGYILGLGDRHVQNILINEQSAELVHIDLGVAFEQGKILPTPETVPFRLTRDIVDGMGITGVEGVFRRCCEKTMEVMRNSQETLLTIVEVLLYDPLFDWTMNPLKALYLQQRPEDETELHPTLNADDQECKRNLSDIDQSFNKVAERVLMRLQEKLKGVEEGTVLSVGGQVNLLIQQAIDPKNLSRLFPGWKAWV

`O=c1cc(-c2cccc3c2Sc2ccccc2N3CCCN2CCN(c3ncccn3)CC2)oc(N2CCOCC2)c1` [Compound 295] was tested, and the IC50 was less than 200 nM.

Compound `COc1ccc(CNCC(=O)Nc2ccc3c(c2)Sc2cccc(-c4cc(=O)cc(N5CCOCC5)o4)c2S3)cc1` [Compound 64] has an IC50 of less than 200 nM.

Work on `O=c1cc(-c2cccc3c2Sc2ccc(OCCNCCO)cc2S3)oc(N2CCOCC2)c1` [Compound 367] yielded an IC50 of less than 200 nM.

`CC(=O)N1CCN(CCOc2ccc3c(c2)Sc2cccc(-c4cc(=O)cc(N5CCOCC5)o4)c2S3)CC1` [Compound 378] gave an IC50 of less than 200 nM.

`CCN1CCCC1CNCCC(=O)Nc1ccc2c(c1)Sc1cccc(-c3cc(=O)cc(N4CCOCC4)o3)c1S2` (stereo not shown) [Compound 126] gave an IC50 of less than 200 nM.

Compound `O=c1cc(-c2cccc3c2Sc2ccc(OCCN4CCN(c5ccccn5)CC4)cc2S3)oc(N2CCOCC2)c1` [Compound 399] has an IC50 of less than 200 nM.

`O=C(COc1ccc2c(c1)Sc1cccc(-c3cc(=O)cc(N4CCOCC4)o3)c1S2)NC1CCC1` [Compound 405] was tested, and the IC50 was less than 200 nM.

Work on `CN(C)CCN1CCN(CC(=O)Nc2ccc3c(c2)Cc2cccc(-c4cc(=O)cc(N5CCOCC5)o4)c2S3)CC1` [Compound 347] yielded an IC50 of less than 200 nM.

In the case of `CC(C)N1CCN(CC(=O)Nc2ccc3c(c2)Cc2cccc(-c4cc(=O)cc(N5CCOCC5)o4)c2S3)CC1` [Compound 341], the IC50 is reported as less than 200 nM.

`O=c1cc(-c2cccc3c2Sc2ccc(S(=O)(=O)N4CCCCC4)cc2C3)oc(N2CCOCC2)c1` [Compound 485] was tested, and the IC50 was less than 200 nM.

For `O=C(Nc1ccc2c(c1)Sc1cccc(-c3cc(=O)cc(N4CCOCC4)o3)c1S2)c1cccs1` [Compound 32], the IC50 was less than 200 nM.

Work on `CCCNCCOc1ccc2c(c1)Cc1cccc(-c3cc(=O)cc(N4CCOCC4)o3)c1S2` [Compound 537] yielded an IC50 of less than 200 nM.

In the case of `O=c1cc(-c2cccc3c2Sc2ccccc2N3CCCN2CCN(c3ccncc3)CC2)oc(N2CCOCC2)c1` [Compound 291], the IC50 is reported as less than 200 nM.

`CC(C)(C)OC(=O)N1CCC(NCCCN2c3ccccc3Sc3c(-c4cc(=O)cc(N5CCOCC5)o4)cccc32)CC1` [Compound 311] was tested, and the IC50 was less than 200 nM.

`CN1CCN(CCCNCCCN2c3ccccc3Sc3c(-c4cc(=O)cc(N5CCOCC5)o4)cccc32)CC1` [Compound 270] gave an IC50 of less than 200 nM.

Compound `CCCCNC(=O)COc1ccc2c(c1)Sc1cccc(-c3cc(=O)cc(N4CCOCC4)o3)c1S2` [Compound 407] has an IC50 of less than 200 nM.

`CC(C)NC(=O)CN1CCN(CC(=O)Nc2ccc3c(c2)Cc2cccc(-c4cc(=O)cc(N5CCOCC5)o4)c2S3)CC1` [Compound 346] gave an IC50 of less than 200 nM.

With `CC1CN(CCCN2c3ccccc3Sc3c(-c4cc(=O)cc(N5CCOCC5)o4)cccc32)CC(C)O1` (stereo not shown) [Compound 257] the IC50 was less than 200 nM.

`CCN(CC)CCCN1c2ccccc2Sc2c(-c3cc(=O)cc(N4CCOCC4)o3)cccc21` [Compound 244] gave an IC50 of less than 200 nM.

For `CCCCNS(=O)(=O)c1ccc2c(c1)Cc1cccc(-c3cc(=O)cc(N4CCOCC4)o3)c1S2` [Compound 457], the IC50 was less than 200 nM.

Work on `O=c1cc(-c2cccc3c2Sc2ccccc2N3CCCNC2CCCCC2)oc(N2CCOCC2)c1` [Compound 251] yielded an IC50 of less than 200 nM.

With `O=C(COc1ccc2c(c1)Sc1cccc(-c3cc(=O)cc(N4CCOCC4)o3)c1S2)Nc1cccnc1` [Compound 419] the IC50 was less than 200 nM.

For `CC(=O)N1CCN(CCC(=O)Nc2ccc3c(c2)Sc2cccc(-c4cc(=O)cc(N5CCOCC5)o4)c2S3)CC1` [Compound 116], the IC50 was less than 200 nM.

`O=c1cc(-c2cccc3c2Sc2ccccc2N3CCCNC2CCCC2)oc(N2CCOCC2)c1` [Compound 254] was tested, and the IC50 was less than 200 nM.

`CC(=O)OCC(=O)Nc1ccc2c(c1)Sc1cccc(-c3cc(=O)cc(N4CCOCC4)o3)c1S2` [Compound 42] gave an IC50 of less than 200 nM.

`O=C(CCN1CCN(CCO)CC1)Nc1ccc2c(c1)Sc1cccc(-c3cc(=O)cc(N4CCOCC4)o3)c1S2` [Compound 128] gave an IC50 of less than 200 nM.

For `CN(C)CCN(C)CCC(=O)Nc1ccc2c(c1)Sc1cccc(-c3cc(=O)cc(N4CCOCC4)o3)c1S2` [Compound 112], the IC50 was less than 200 nM.

`CCOC(=O)C1CCCN(CCCN2c3ccccc3Sc3c(-c4cc(=O)cc(N5CCOCC5)o4)cccc32)C1` (stereo not shown) [Compound 315] showed an IC50 of less than 200 nM.

Compound `CC(C)NC(=O)CN1CCN(CCC(=O)Nc2ccc3c(c2)Sc2cccc(-c4cc(=O)cc(N5CCOCC5)o4)c2S3)CC1` [Compound 123] has an IC50 of less than 200 nM.

`CC(C)(C)OC(=O)N1CCN(CCCN2c3ccccc3Sc3c(-c4cc(=O)cc(N5CCOCC5)o4)cccc32)CC1` [Compound 298] gave an IC50 of less than 200 nM.

`C[C@@H]1CN(S(=O)(=O)c2ccc3c(c2)Cc2cccc(-c4cc(=O)cc(N5CCOCC5)o4)c2S3)C[C@H](C)O1` [Compound 478] was tested, and the IC50 was less than 200 nM.

`COCCOCC(=O)Nc1ccc2c(c1)Sc1cccc(-c3cc(=O)cc(N4CCOCC4)o3)c1S2` [Compound 48] showed an IC50 of less than 200 nM.

With `O=C(CN1CCCCCC1)Nc1ccc2c(c1)Sc1cccc(-c3cc(=O)cc(N4CCOCC4)o3)c1S2` [Compound 62] the IC50 was less than 200 nM.

Compound `N#Cc1ccc(C(=O)Nc2ccc3c(c2)Sc2cccc(-c4cc(=O)cc(N5CCOCC5)o4)c2S3)cc1` [Compound 27] has an IC50 of less than 200 nM.

Compound `NC(=O)C1CCN(C(=O)COc2ccc3c(c2)Sc2cccc(-c4cc(=O)cc(N5CCOCC5)o4)c2S3)CC1` [Compound 416] has an IC50 of less than 200 nM.

Compound `O=C(CN1CCN(c2ccc(F)cc2)CC1)Nc1ccc2c(c1)Cc1cccc(-c3cc(=O)cc(N4CCOCC4)o3)c1S2` [Compound 344] has an IC50 of less than 200 nM.

`O=C(COc1ccc2c(c1)Sc1cccc(-c3cc(=O)cc(N4CCOCC4)o3)c1S2)N[C@@H](CO)C(=O)OCc1ccccc1` [Compound 424] showed an IC50 of less than 200 nM.

In the case of `O=C(Nc1ccc2c(c1)Sc1cccc(-c3cc(=O)cc(N4CCOCC4)o3)c1S2)c1cccnc1` [Compound 28], the IC50 is reported as less than 200 nM.

In the case of `CN(C)CCC(=O)Nc1ccc2c(c1)Sc1cccc(-c3cc(=O)cc(N4CCOCC4)o3)c1S2` [Compound 108], the IC50 is reported as less than 200 nM.

In the case of `O=c1cc(-c2cccc3c2Sc2ccc(OCCNCc4ccncc4)cc2S3)oc(N2CCOCC2)c1` [Compound 366], the IC50 is reported as less than 200 nM.

With `O=C(CN1CCN(CCOCCO)CC1)Nc1ccc2c(c1)Sc1cccc(-c3cc(=O)cc(N4CCOCC4)o3)c1S2` [Compound 79] the IC50 was less than 200 nM.

For `O=c1cc(-c2cccc3c2Sc2ccccc2N3CCCNC2CCC(O)CC2)oc(N2CCOCC2)c1` (stereo not shown) [Compound 306], the IC50 was less than 200 nM.

In the case of `CCN1CCN(CC(=O)Nc2ccc3c(c2)Cc2cccc(-c4cc(=O)cc(N5CCOCC5)o4)c2S3)CC1` [Compound 342], the IC50 is reported as less than 200 nM.

With `O=C(COc1ccc2c(c1)Cc1cccc(-c3cc(=O)cc(N4CCOCC4)o3)c1S2)N1CCSCC1` [Compound 510] the IC50 was less than 200 nM.

`CC(=O)N1CCN(C(=O)c2ccc3c(c2)Sc2cccc(-c4cc(=O)cc(N5CCOCC5)o4)c2S3)CC1` [Compound 11] showed an IC50 of less than 200 nM.

In the case of `CC(C)NC(=O)CN1CCN(CC(=O)Nc2ccc3c(c2)Sc2cccc(-c4cc(=O)cc(N5CCOCC5)o4)c2S3)CC1` [Compound 85], the IC50 is reported as less than 200 nM.

In the case of `O=c1cc(-c2ccc(OCCNN3CCOCC3)c3c2Sc2ccccc2S3)oc(N2CCOCC2)c1` [Compound 153], the IC50 is reported as less than 200 nM.

For `O=c1cc(-c2cccc3c2Sc2ccc(S(=O)(=O)NCCc4cnc[nH]4)cc2C3)oc(N2CCOCC2)c1` [Compound 465], the IC50 was less than 200 nM.

In the case of `CN1CCCN(CCCN2c3ccccc3Sc3c(-c4cc(=O)cc(N5CCOCC5)o4)cccc32)CC1` [Compound 331], the IC50 is reported as less than 200 nM.

Compound `O=C(CN1CCCNCC1)Nc1ccc2c(c1)Sc1cccc(-c3cc(=O)cc(N4CCOCC4)o3)c1S2` [Compound 61] has an IC50 of less than 200 nM.

`O=C(CN(CCO)CCO)Nc1ccc2c(c1)Sc1cccc(-c3cc(=O)cc(N4CCOCC4)o3)c1S2` [Compound 55] was tested, and the IC50 was less than 200 nM.

`N#CCNC(=O)COc1ccc2c(c1)Sc1cccc(-c3cc(=O)cc(N4CCOCC4)o3)c1S2` [Compound 409] was tested, and the IC50 was less than 200 nM.

`CC(=O)OC(C(=O)Nc1ccc2c(c1)Sc1cccc(-c3cc(=O)cc(N4CCOCC4)o3)c1S2)c1ccccc1` (stereo not shown) [Compound 43] showed an IC50 of less than 200 nM.

Compound `CC(C)N(CCNCCCOc1ccc(-c2cc(=O)cc(N3CCOCC3)o2)c2c1Sc1ccccc1S2)C(C)C` [Compound 200] has an IC50 of less than 200 nM.

Work on `NC(=O)C1CCN(S(=O)(=O)c2ccc3c(c2)Cc2cccc(-c4cc(=O)cc(N5CCOCC5)o4)c2S3)CC1` [Compound 469] yielded an IC50 of less than 200 nM.

Work on `CCN1CCN(C(=O)COc2ccc3c(c2)Sc2cccc(-c4cc(=O)cc(N5CCOCC5)o4)c2S3)CC1` [Compound 438] yielded an IC50 of less than 200 nM.

For `COc1ccc(CNCCC(=O)Nc2ccc3c(c2)Sc2cccc(-c4cc(=O)cc(N5CCOCC5)o4)c2S3)cc1` [Compound 103], the IC50 was less than 200 nM.

Work on `CCOC(=O)CN1CCN(CCCN2c3ccccc3Sc3c(-c4cc(=O)cc(N5CCOCC5)o4)cccc32)CC1=O` [Compound 299] yielded an IC50 of less than 200 nM.
